Measured values published in patent US12357598B2, “Treatment of neurodevelopmental disorders” (THE REGENTS OF THE UNIVERSITY OF CALIFORNIA, priority 2018, dated 2025).

Columns and labels:
Assay type in all cases: in vivo, mouse
ddY mice [1] = assay: Short-chain fatty acids in fecal samples after maternal glyphosate exposure; settings: offspring after maternal glyphosate exposure
Protocol: Measurement of short-chain fatty acids—acetic acid, propionic acid, butyric acid, and valeric acid—in fecal samples was performed by the TechnoSuruga Laboratory, Co., Ltd. (Shizuoka, Japan).

ddY mice [2] = assay: Prepulse inhibition (PPI) test, offspring after maternal glyphosate exposure; settings: juvenile offspring, maternal 0.095% glyphosate vs water
Protocol: PPI: The offspring mice were tested for their acoustic startle reactivity (ASR) in a startle chamber (SR-LAB; San Diego Instruments, San Diego, CA, USA) using the standard methods described previously (9,10). The test sessions were begun after an initial 10-min acclimation period in the chamber. The mice were subjected to one of six trials: (1) pulse alone, as a 40 ms broadband burst; a pulse (40 ms broadband burst) preceded by 100 ms with a 20 ms prepulse that was (2) 4 dB, (3) 8 dB, (4) 12 dB, or (5) 16 dB over background (65 dB); and (6) background only (no stimulus). The amount of prepulse inhibition (PPI) was expressed as the percentage decrease in the amplitude of the startle reactivity caused by presentation of the prepulse (% PPI). The PPI test lasted 20 min in total.

Ephx2 mRNA = assay: Quantitative RT-PCR of Ephx2 mRNA after maternal glyphosate exposure; settings: juvenile offspring (P28) after maternal glyphosate exposure vs water
Text: Gene expression analysis by quantitative real-time PCR. At juvenile (P28) stage, mice were sacrificed, and their brains were removed for measurement of gene expression of Ephx2 mRNA. Brain regions such as PFC, hippocampus, and striatum were dissected from brain on ice. A quantitative RT-PCR system (Step One Plus, Thermo Fisher Scientific, Yokohama, Japan) was used to measure mRNAs. The specific mRNA transcripts were quantified by TaqManGene Expression assays (Thermo Fisher Scientific, Yokohama, Japan). Expression levels of Ephx2 (Mm01313813_m1) was measured in brain tissue. Total RNA was extracted by use of an RNeasy Mini Kit (Qiagen, Hilden, Germany). The purity of total RNA was assessed by Biophotometer plus (Eppendorf, Hamburg, Germany). The RNA samples were used in the first strand cDNA synthesis with High Capacity cDNA Reverse Transcription Kit (#4368813 Thermo Fisher Scientific, Yokohama, Japan). All samples were tested in triplicate and average values were used for quantification. The average values were normalized to Vic-labeled Actb mRNA (Cat #4352341E: pre-developed TaqMan Assay Reagents, Thermo Fisher Scientific, Yokohama, Japan).

ddY mice [3] = assay: Oxylipin profiling of brain regions of juvenile offspring after prenatal poly(I:C) (MIA); settings: juvenile offspring (P28) after prenatal poly(I:C)
Protocol: Administration of poly(I:C) into pregnant mice. The schedule of poly(I:C) treatment was performed as reported previously (13,36-39). The pregnant mice were injected intraperitoneally (i.p.) for six consecutive days from E12 to E17 with poly(I:C) (5.0 mg/kg/day, Sigma-Aldrich Co. Ltd., St. Louis, MO, USA) dissolved in physiological saline, or an equivalent volume (5 ml/kg) of saline. The male offspring were separated from their mothers at wearing (P21), and mice were caged each three-five in the groups in clear polycarbonate cage (22.5×33.8×14.0 cm). Mice were housed under controlled temperatures and 12-hour light/dark cycles (lights on between 07:00-19:00 h), with ad libitum food and water.
Collection of brain samples and oxylipin profiling. The pregnant mice were injected i.p. with poly(I:C) (5.0 mg/kg/day for 6 days from E12 to E17) or saline, as described above. The male offspring were separated from their mothers at wearing (P21). On P28, mice were deeply anesthetized with isoflurane and brains were removed from the skulls. For Western blot analysis, brain regions such as prefrontal cortex (PFC), striatum, CA1, CA3 and dentate gyrus (DG) of the hippocampus were dissected from brain on ice using a Leica microscope S9E (Leica Microsystems, Tokyo, Japan). The samples were stored at −80° C. before assay. For oxylipin analysis, PFC, hippocampus, and cerebellum were dissected from brain on ice, and the samples were stored at −80° C. before assay. Measurement of eicosanoids was performed at UC Davis using the previous method (57).

O=C(O)CNCP(=O)(O)O [glyphosate]
levels of acetic acid in the fecal samples (ddY mice [1]): significantly increased | propionic acid, butyric acid, and valeric acid in fecal samples (ddY mice [1]): not different | prepulse inhibition (PPI) (ddY mice [2]): not different | gene expression of sEH (or Ephx2) mRNA in the PFC, hippocampus, and striatum (Ephx2 mRNA): significantly higher

polyriboinosinic-polyribocytidilic acid [Poly(I:C)]
5(6)-EpETrE level (ddY mice [3]; PFC): 222.07 ± 22.38 pmol/g tissue | 6-keto-PGF1α level (ddY mice [3]; PFC): 22.088 ± 1.785 pmol/g tissue | 8(9)-EpETrE level (ddY mice [3]; PFC): 6.725 ± 0.892 pmol/g tissue | 9(10)-EpOME level (ddY mice [3]; PFC): 2.695 ± 0.424 pmol/g tissue | 9,10,13-TriHOME level (ddY mice [3]; PFC): 22.676 ± 3.814 pmol/g tissue | 9,10-DiHOME level (ddY mice [3]; PFC): 1.069 ± 0.188 pmol/g tissue | 9,12,13-TriHOME level (ddY mice [3]; PFC): 39.728 ± 6.854 pmol/g tissue | 9-HODE level (ddY mice [3]; PFC): 24.253 ± 3.782 pmol/g tissue | 9-oxo-ODE level (ddY mice [3]; PFC): 15.032 ± 2.690 pmol/g tissue | 10(11)-EpDPE level (ddY mice [3]; PFC): 3.698 ± 0.292 pmol/g tissue | 11(12)-EpETrE level (ddY mice [3]; PFC): 26.639 ± 3.530 pmol/g tissue | 11-HETE level (ddY mice [3]; PFC): 72.292 ± 5.677 pmol/g tissue | 12(13)-EpOME level (ddY mice [3]; PFC): 2.934 ± 0.435 pmol/g tissue | 12,13-DiHOME level (ddY mice [3]; PFC): 4.640 ± 0.477 pmol/g tissue | 12-HETE level (ddY mice [3]; PFC): 28.597 ± 2.727 pmol/g tissue | 13-HODE level (ddY mice [3]; PFC): 31.020 ± 5.237 pmol/g tissue | 14(15)-EpETrE level (ddY mice [3]; PFC): 30.74 ± 5.605 pmol/g tissue | 15,16-DiHODE level (ddY mice [3]; PFC): 2.785 ± 0.414 pmol/g tissue | 15-HETE level (ddY mice [3]; PFC): 68.997 ± 4.672 pmol/g tissue | 19,20-DiHDPE level (ddY mice [3]; PFC): 4.319 ± 0.331 pmol/g tissue | EKODE level (ddY mice [3]; PFC): 6.552 ± 1.725 pmol/g tissue | PGD2 level (ddY mice [3]; PFC): 147.79 ± 9.748 pmol/g tissue | PGE2 level (ddY mice [3]; PFC): 16.359 ± 1.175 pmol/g tissue | PGF2a level (ddY mice [3]; PFC): 86.798 ± 6.454 pmol/g tissue | Thromboxane B2 level (ddY mice [3]; PFC): 43.922 ± 3.349 pmol/g tissue | 5(6)-EpETrE level (ddY mice [3]; cerebellum): 174.37 ± 11.71 pmol/g tissue | 6-keto-PGF1a level (ddY mice [3]; cerebellum): 29.69 ± 1.379 pmol/g tissue | 8(9)-EpETrE level (ddY mice [3]; cerebellum): 5.453 ± 0.582 pmol/g tissue | 9(10)-EpOME level (ddY mice [3]; cerebellum): 3.076 ± 0.662 pmol/g tissue | 9,10,13-TriHOME level (ddY mice [3]; cerebellum): 20.84 ± 3.099 pmol/g tissue | 9,10-DiHOME level (ddY mice [3]; cerebellum): 1.283 ± 0.279 pmol/g tissue | 9,12,13-TriHOME level (ddY mice [3]; cerebellum): 37.62 ± 5.925 pmol/g tissue | 9-HODE level (ddY mice [3]; cerebellum): 23.33 ± 2.571 pmol/g tissue | 9-oxo-ODE level (ddY mice [3]; cerebellum): 16.56 ± 2.802 pmol/g tissue | 10(11)-EpDPE level (ddY mice [3]; cerebellum): 6.061 ± 0.717 pmol/g tissue | 11(12)-EpETrE level (ddY mice [3]; cerebellum): 21.10 ± 1.869 pmol/g tissue | 12(13)-EpOME level (ddY mice [3]; cerebellum): 2.989 ± 0.423 pmol/g tissue | 12,13-DiHOME level (ddY mice [3]; cerebellum): 5.406 ± 0.682 pmol/g tissue | 13-HODE level (ddY mice [3]; cerebellum): 30.47 ± 4.048 pmol/g tissue | 14(15)-EpETrE level (ddY mice [3]; cerebellum): 26.63 ± 3.595 pmol/g tissue | 15,16-DiHODE level (ddY mice [3]; cerebellum): 2.772 ± 0.423 pmol/g tissue | 15-HETE level (ddY mice [3]; cerebellum): 36.59 ± 3.256 pmol/g tissue | 19,20-DiHDPE level (ddY mice [3]; cerebellum): 9.767 ± 0.858 pmol/g tissue | EKODE level (ddY mice [3]; cerebellum): 7.801 ± 1.325 pmol/g tissue | PGD2 level (ddY mice [3]; cerebellum): 21.60 ± 1.774 pmol/g tissue | PGE2 level (ddY mice [3]; cerebellum): 6.969 ± 0.684 pmol/g tissue | PGF2a level (ddY mice [3]; cerebellum): 46.32 ± 3.830 pmol/g tissue | TXB2 level (ddY mice [3]; cerebellum): 14.62 ± 0.876 pmol/g tissue | 12-HETE level (ddY mice [3]; cerebellum, first of two lines printed 12-HETE (r21)): 34.19 ± 3.215 pmol/g tissue | 12-HETE level (ddY mice [3]; cerebellum, second of two lines printed 12-HETE (r23)): 75.46 ± 28.38 pmol/g tissue | 5(6)-EpETrE level (ddY mice [3]; hippocampus): 333.09 ± 30.68 pmol/g tissue | 6-keto-PGF1α level (ddY mice [3]; hippocampus): 47.853 ± 3.589 pmol/g tissue | 8(9)-EpETrE level (ddY mice [3]; hippocampus): 10.53 ± 0.809 pmol/g tissue | 9(10)-EpOME level (ddY mice [3]; hippocampus): 3.933 ± 0.304 pmol/g tissue | 9,10,13-TriHOME level (ddY mice [3]; hippocampus): 31.142 ± 2.301 pmol/g tissue | 9,10-DiHOME level (ddY mice [3]; hippocampus): 0.814 ± 0.116 pmol/g tissue | 9,12,13-TriHOME level (ddY mice [3]; hippocampus): 54.137 ± 3.954 pmol/g tissue | 9-HODE level (ddY mice [3]; hippocampus): 34.887 ± 1.969 pmol/g tissue | 9-oxo-ODE level (ddY mice [3]; hippocampus): 24.50 ± 1.957 pmol/g tissue | 10(11)-EpDPE level (ddY mice [3]; hippocampus): 6.103 ± 0.347 pmol/g tissue | 11(12)-EpETrE level (ddY mice [3]; hippocampus): 42.05 ± 3.911 pmol/g tissue | 11-HETE level (ddY mice [3]; hippocampus): 106.263 ± 6.366 pmol/g tissue | 12(13)-EpOME level (ddY mice [3]; hippocampus): 4.641 ± 0.393 pmol/g tissue | 12,13-DiHOME level (ddY mice [3]; hippocampus): 4.478 ± 0.528 pmol/g tissue | 12-HETE level (ddY mice [3]; hippocampus): 83.22 ± 12.09 pmol/g tissue | 13-HODE level (ddY mice [3]; hippocampus): 41.916 ± 2.454 pmol/g tissue | 14(15)-EpETrE level (ddY mice [3]; hippocampus): 45.020 ± 3.734 pmol/g tissue | 15,16-DiHODE level (ddY mice [3]; hippocampus): 2.295 ± 0.364 pmol/g tissue | 15-HETE level (ddY mice [3]; hippocampus): 100.514 ± 6.210 pmol/g tissue | 19,20-DiHDPE level (ddY mice [3]; hippocampus): 4.228 ± 0.321 pmol/g tissue | EKODE level (ddY mice [3]; hippocampus): 14.86 ± 0.949 pmol/g tissue | PGD2 level (ddY mice [3]; hippocampus): 119.25 ± 8.999 pmol/g tissue | PGE2 level (ddY mice [3]; hippocampus): 20.186 ± 1.410 pmol/g tissue | PGF2a level (ddY mice [3]; hippocampus): 153.113 ± 10.00 pmol/g tissue | Thromboxane B2 level (ddY mice [3]; hippocampus): 65.491 ± 5.906 pmol/g tissue
